The test system of one assay is SKOV-3 cells. The experiment in a line: In vitro cytotoxicity (MTT) on SKOV-3. The assay is classed as cell-based. To be noted: read-out: IC50 (half maximal inhibitory concentration). How it is done: (§1) A549, MDA-MB-231 and SKOV-3 cells were seeded (5×10^3 cells/well) in 96-well plates and incubated overnight. Free Afatinib, Afatinib loaded PLGA NPs, anti HER-2 PLGA NPs, Jurkat-T-MNPs, and CAR-T-MNPs were added to the seeded cells (n=4). Alternatively, free cisplatin, cisplatin loaded PLGA NPs, Jurkat-T-MNPs, and CAR-T-MNPs were added to the seeded cells (n=4) at a cisplatin concentration of 7 μM (A549) & 3.5 μM (SKOV-3). After incubation for 48 hours, the absorbance at 490 nm was measured using UV-VIS Spectrophotometer (Tecan) after incubating with MTT reagent (Promega) for one hour. Cell viabilities were calculated via normalizing to the control group (cells exposed to complete media, 100% viability).

Another assay has as its system MDA-MB-231 cells. The experiment in a line: In vitro cytotoxicity (MTT) on MDA-MB-231. The assay is classed as cell-based. To be noted: Homo sapiens; MDA-MB-231, 48 hour exposure. How it is done:
as §1

A further assay concerns A549 cells. The experiment in a line: In vitro cytotoxicity (MTT) on A549. It counts as cell-based. To be noted: Homo sapiens, afatinib: 48 hour exposure, read-out: IC50 (half maximal inhibitory concentration). How it is done: as §1
Assay [1] has as its system subcutaneous A549 tumor implanted in nude mice. As to the kind of experiment: In vivo therapeutic efficiency (tumor delay, survival, weight, H&E histology). To be noted: 2-week post treatment, single IV dose, cisplatin 3 mg/kg. How it is done: Nude mice (NU/J) aged 5-6 weeks were purchased from Jacksons Laboratory. Briefly, 2×10^6 A549 cells in 200 μL of Matrigel (Corning, NY) were injected subcutaneously in athymic nude mice. Tumor volumes were checked at regular intervals of 3 days and treatment started when the volume reached ˜300 mm3. Tumor volumes were measured using a standard Vernier Calipers. All procedures involving experimental animals were performed in accordance with the protocols approved by the University of Texas at Arlington Institutional Animal Care and Use Committee.
Xenograft tumors as described above were used to evaluate the therapeutic efficiency of CAR-T-MNPs. After the tumor reached ˜300 mm3, the mice were randomly distributed into 4 groups (n=3) for different treatment groups. Prior to treatment, all mice were ear-tagged, the initial tumor volumes were measured by a caliper, and the body weights were recorded. The treatment groups received a single tail-vein IV administration of either of 200 μL of saline (control), free drug, Jurkat-T-MNPs or CAR-T-MNPs. Tumor volume was measured every 2-3 days via a caliper. Tumor volumes were calculated by measuring the tumor perpendicular diameters with a caliper and calculated using the formula V=½×a×b2, where a and b are the longest diameter and its longest perpendicular diameter, respectively. […]

Like-named read-outs stand apart in the source and are kept apart here.

On to `CN(C)C/C=C/C(=O)Nc1cc2c(Nc3ccc(F)c(Cl)c3)ncnc2cc1O[C@H]1CCOC1` [afatinib, Afatinib], for which the IC50 with SKOV-3 cells (Homo sapiens, SK-OV-3, afatinib: 48 hour exposure) is about 1400 nM; in the assay with MDA-MB-231 cells, about 3.7 µM; with A549 cells it was about 4.3 µM.
With `N.N.[Cl][Pt][Cl]` [cisplatin, Cisplatin], the IC50 with SKOV-3 cells (afatinib: 48 hour exposure) turned out to be 4000 nM. The tumor volume result in assay [1] was “increasing trend”.

The values above are taken from patent US20240245721A1, “DOUBLE SIDED CHIMERIC ANTIGEN RECEPTOR (CAR) ENGINEERED CELL MEMBRANE BASED DRUG DELIVERY SYSTEMS” (BOARD OF REGENTS, THE UNIVERSITY OF TEXAS SYSTEM, priority 2021, published 2024).
